pEC50, pIC50: −log10 of the molar value.
Legend:
MEK1 activated ERK1 = biological target: T1, MEK1 activated ERK1 (Homo sapiens, UniProt P27361); test: Omnia continuous-read kinase assay for potency against MEK1 activated ERK1; assay type: biochemical; conditions: MEK1 activated ERK1, ATP at KM; read-out: ERK1 Omnia WT ATP KM IC50
T1 construct: purchased Millipore (Billerica, Mass.) 14-439-K
Source text: Omnia Assay Protocol for Potency Assessment Against MEK1 Activated ERK1:
The protocol below describes continuous-read kinase assays to measure potency of compounds against activated ERK1 enzyme. The mechanics of the assay platform are best described by the vendor (Invitrogen, Carlsbad, Calif.) on their website at the following URL: invitrogen.com/site/us/en/home.html.
Briefly, a 1.25× stock of ERK1 enzyme (14-439-K) from Millipore (Billerica, Mass.), 5×ATP (AS001A) and ST17-Sox conjugated peptide substrate (KNZ1171C) were prepared in 1× kinase reaction buffer consisting of 20 mM Tris, pH 7.5, 5 mM MgCl2, 1 mM EGTA, 5 mM β-glycerophosphate, 5% glycerol (10× stock, KB002A) and 0.2 mM DTT. 10 μL of ATP/ST17-sox peptide substrate mix was combined with 0.5 μL volume of 100% DMSO and serially diluted compounds were prepared in 100% DMSO in a Corning (#3574) 384-well, white, non-binding surface microtiter plate (Corning, N.Y.). Kinase reactions were started with the addition of 40 μL of ERK1 solution and monitored every 71 seconds for 30-240 minutes at λex360/λem485 in a Synergy plate reader from BioTek (Winooski, Vt.). At the conclusion of each assay, progress curves from each well were examined for linear reaction kinetics and fit statistics (R^2, 95% confidence interval, absolute sum of squares). Initial velocity (0 minutes to ˜30+ minutes) from each reaction was determined from the slope of a plot of relative fluorescence units vs time (minutes or seconds) and then plotted against inhibitor concentration to estimate ^AppIC50 from log [Inhibitor] vs Response, Variable Slope model in GraphPad Prism from GraphPad Software (San Diego, Calif.).
[Reagent] used in optimized protocol:
[ERK1]=4 nM, [ATP]=50 μM, [ST17-Sox]=10 μM (ATP ^appKM 48 μM)
The results of this assay show the degree of inhibition of ERK activity, which is a direct measurement of inhibition of ERK activity. Results from this assay are reported in Table A under the column “ERK1 Omnia WT ATP KM IC50 (nM).”

[1] = test system: ERK1/2 phosphorylation of p90RSK in HT29 cells; test: pRSK MSD Assay in HT29 cells; assay type: cell-based; conditions: Homo sapiens, HT-29, read-out: ERK1/ERK2 PRSK MSD HT29 EC50
Method: The protocol below describes an assay to measure the kinase activity of ERK1/2 to phosphorylate a substrate, p90RSK, in the presence or absence of a test compound. This experiment was conducted using a Mesoscale Discovery plate. The day before the assay, HT29 cells were split and plated at 50,000 cells/well in complete growth media. After allowing cells to adhere, the media was removed and replaced with media containing 0.1% FBS and incubated overnight. Blank MSD plates (Mesoscale Discovery, Cat # L15XA3) were coated with 25 μl/well RSK capture antibody (BD Biosciences, Cat. #610226) and incubated at 4° C. overnight, then blocked with 150 μl of 3% BSA solution. The next day, the media from the cell culture plate was removed and replaced with 100 μl of media containing a test compound and incubated for 120 minutes at 37° C. The media was removed and replaced with 55 μl per well of lysis buffer with protease inhibitors (Roche Biosciences, Cat. #11836170001) and phosphatase inhibitors (Sigma-Aldrich, Cat. # P-0044 and P-5726), followed by incubation at 4° C. for 30 minutes. 50 μl of lysate was transferred to a blocked MSD plate, followed by incubation at room temperature for 2 hours under constant shaking. The plate was washed 3 times with MSD wash buffer (Mesoscale Discovery, Cat. # R617TX), and 25 μl/well phospho-RSK (pRSK) detection antibody (Cell Signaling Technology, Cat. #9335) was added with Sulfo-tagged detection antibody (Mesoscale Discovery, Cat. # R32AB-1) diluted in 1% BSA in MSD wash buffer. This mixture was incubated for 1 hour at room temperature under constant shaking. The plate was washed 3 times, and 150 μl 1×MSD read buffer was added, followed by signal detection in an MSD plate reader.

T1 sequence (P27361 whole entry): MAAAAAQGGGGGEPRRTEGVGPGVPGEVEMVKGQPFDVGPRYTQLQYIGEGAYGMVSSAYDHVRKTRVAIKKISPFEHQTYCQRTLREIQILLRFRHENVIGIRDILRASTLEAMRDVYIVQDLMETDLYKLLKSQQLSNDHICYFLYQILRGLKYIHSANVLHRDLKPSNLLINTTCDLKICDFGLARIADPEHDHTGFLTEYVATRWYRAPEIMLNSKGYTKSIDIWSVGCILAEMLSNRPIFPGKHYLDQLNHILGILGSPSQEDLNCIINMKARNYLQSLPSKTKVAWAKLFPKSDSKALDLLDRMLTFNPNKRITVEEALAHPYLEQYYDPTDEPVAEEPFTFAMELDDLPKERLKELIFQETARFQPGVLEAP

pIC50 (MEK1 activated ERK1)	pEC50 [1]	Compound
< 6.00	< 6.00	C/C=C/C(=O)Nc1cc(F)ccc1Nc1nc(N[C@@H]2CCC[C@H](C(N)=O)C2)ncc1C(F)(F)F (racemic) [Compound I-6, Rac-(E)-3-((4-((2-(but-2-enamido)-4-fluorophenyl)amino)-5-(trifluoromethyl)pyrimidin-2-yl)amino)-cis-cyclohexanecarboxamide]
6.30 to 7.00	6.30 to 7.00	C=CC(=O)Nc1ccccc1Nc1nc(Nc2ccc(F)cc2OC)ncc1Cl [Compound I-210, N-(2-((5-chloro-2-((4-fluoro-2-methoxyphenyl)amino)pyrimidin-4-yl)amino)phenyl)acrylamide]
6.00 to 6.30	< 6.00	C=CC(=O)Nc1ccccc1Nc1nc(N[C@H]2CCCN(C(=O)[C@H](C)O)C2)ncc1Cl [Compound I-138, N-(2-((5-chloro-2-(((S)-1-((S)-2-hydroxypropanoyl)piperidin-3-yl)amino)pyrimidin-4-yl)amino)phenyl)acrylamide]
6.00 to 6.30	< 6.00	C=CC(=O)N(C)c1ccccc1Nc1nc(Nc2cc(C(N)=O)ccc2C#N)ncc1Cl [Compound I-196, 3-((5-chloro-4-((2-(N-methylacrylamido)phenyl)amino)pyrimidin-2-yl)amino)-4-cyanobenzamide]
6.30 to 7.00	6.00 to 6.30	C=CC(=O)Nc1ccccc1Nc1nc(Nc2cc(C(=O)NOCCO)ccc2OC)ncc1Cl [Compound I-194, 3-((4-((2-acrylamidophenyl)amino)-5-chloropyrimidin-2-yl)amino)-N-(2-hydroxyethoxy)-4-methoxybenzamide]
6.30 to 7.00	< 6.00	CC(=O)N1CCC[C@H](Nc2ncc(C(F)(F)F)c(Nc3ccccc3NC(=O)CCl)n2)C1 [Compound I-30, (S)—N-(2-((2-((1-Acetylpiperidin-3-yl)amino)-5-(trifluoromethyl)pyrimidin-4-yl)amino)phenyl)-2-chloroacetamide]
6.30 to 7.00	< 6.00	C=CC(=O)Nc1ccccc1Nc1nc(N[C@@H]2CCC[C@H](C(=O)O)C2)ncc1C(F)(F)F (racemic) [Compound I-14, Rac-3-((4-((2-acrylamidophenyl)amino)-5-(trifluoromethyl)pyrimidin-2-yl)amino)-cis-cyclohexanecarboxylic acid]
6.30 to 7.00	< 6.00	C=CC(=O)Nc1ccccc1Nc1nc(Nc2cc(NC(=O)CCCC(=O)NCCCOCCOCCOCCCNC(=O)CCCC[C@@H]3SC[C@@H]4NC(=O)N[C@@H]43)cc(C(N)=O)c2)ncc1Cl [Compound I-304, N^1-(3-((4-((2-acrylamidophenyl)amino)-5-chloropyrimidin-2-yl)amino)-5-carbamoylphenyl)-N^5-(15-oxo-19-((3aS,4S,6aR)-2-oxohexahydro-1H-thieno[3,4-d]imidazol-4-yl)-4,7,10-trioxa-14-azanonadecyl)glutaramide]
6.30 to 7.00	6.30 to 7.00	C=CC(=O)Nc1ccccc1Nc1nc(Nc2cc(C(=O)NOCCO)ccc2C)ncc1Cl [Compound I-198, 3-((4-((2-acrylamidophenyl)amino)-5-chloropyrimidin-2-yl)amino)-N-(2-hydroxyethoxy)-4-methylbenzamide]
6.30 to 7.00	< 6.00	C=CC(=O)Nc1ccccc1Nc1nc(Nc2cc(C(=O)NOCCO)ccc2C#N)ncc1C(F)(F)F [Compound I-75, 3-((4-((2-Acrylamidophenyl)amino)-5-(trifluoromethyl)pyrimidin-2-yl)amino)-4-cyano-N-(2-hydroxyethoxyl)benzamide]

More lines, now with the values behind:

Compound	pIC50 (MEK1 activated ERK1)	pEC50 [1]
C=CC(=O)Nc1ccccc1Nc1nc(Nc2cc(C(N)=O)ccn2)ncc1C(F)(F)F [Compound I-83, 2-((4-((2-Acrylamidophenyl)amino)-5-(trifluoromethyl)pyrimidin-2-yl)amino)isonicotinamide]	6.30 to 7.00	6.30 to 7.00
C=CC(=O)Nc1cc(F)ccc1Nc1nc(Nc2cc(C(N)=O)ccc2C#N)ncc1Cl [Compound I-207, 3-(4-(2-acrylamido-4-fluorophenylamino)-5-chloropyrimidin-2-ylamino)-4-cyanobenzamide]	6.30 to 7.00	< 6.00
O=C(CCl)Nc1ccccc1Nc1nc(N[C@H]2CCCN(C(=O)CCl)C2)ncc1C(F)(F)F [Compound I-31, (S)-2-Chloro-N-(2-((2-((1-(2-chloroacetyl)piperidin-3-yl)amino)-5-(trifluoromethyl)pyrimidin-4-yl)amino)phenyl)acetamide]	6.00 to 6.30	< 6.00
C#CC(=O)NCCCOc1cc(C)c(Nc2ncc(Cl)c(Nc3ccccc3NC(=O)C=C)n2)cc1C(N)=O [Compound I-227, 5-((4-((2-acrylamidophenyl)amino)-5-chloropyrimidin-2-yl)amino)-4-methyl-2-(3-propiolamidopropoxy)benzamide]	6.30 to 7.00	< 6.00
O=C(CCl)N[C@@H]1CCCC[C@H]1Nc1nc(N[C@H]2CCCN(C(=O)CO)C2)ncc1C(F)(F)F [Compound I-35, 2-Chloro-N-((1R,2R)-2-((2-(((S)-1-(2-hydroxyacetyl)piperidin-3-yl)amino)-5-(trifluoromethyl)pyrimidin-4-yl)amino)cyclohexyl)acetamide]	6.30 to 7.00	< 6.00
C=CC(=O)Nc1cc(C)ccc1Nc1nc(Nc2ccnc(Cl)c2)ncc1Cl [Compound I-230, N-(2-((5-chloro-2-((2-chloropyridin-4-yl)amino)pyrimidin-4-yl)amino)-5-methylphenyl)acrylamide]	6.00 to 6.30	6.30 to 7.00
C=C(C)S(=O)(=O)Nc1cc(F)ccc1Nc1nc(Nc2cc(C(C)=O)ccc2C)ncc1C(F)(F)F [Compound I-99, N-(2-((2-((5-acetyl-2-methylphenyl)amino)-5-(trifluoromethyl)pyrimidin-4-yl)amino)-5-fluorophenyl)prop-1-ene-2-sulfonamide]	6.00 to 6.30	< 6.00
C=CC(=O)N[C@@H]1CCCC[C@H]1Nc1nc(Nc2cc(C(=O)NOC)ccc2C)ncc1Cl (racemic) [Compound I-188, Rac-trans-3-((4-((2-acrylamidocyclohexyl)amino)-5-chloropyrimidin-2-yl)amino)-N-methoxy-4-methylbenzamide]	< 6.00	< 6.00
C=C(C)S(=O)(=O)Nc1cc(F)ccc1Nc1nc(Nc2cc(C(N)=O)ccc2C)ncc1C(F)(F)F [Compound I-87, 3-((4-((4-Fluoro-2-(1-methylvinylsulfonamido)phenyl)amino)-5-(trifluoromethyl)pyrimidin-2-yl)amino)-4-methylbenzamide]	6.30 to 7.00	< 6.00
C=CC(=O)N[C@@H]1CCCC[C@H]1Nc1nc(Nc2cc(C(N)=O)ccc2C)ncc1Cl (racemic) [Compound I-226, Rac-trans-3-((4-((2-acrylamidocyclohexyl)amino)-5-chloropyrimidin-2-yl)amino)-4-methylbenzamide]	6.00 to 6.30	6.00 to 6.30

Source: US9561228B2 (Celgene Avilomics Research, Inc., priority 2013, dated 2017)
